Test results published in patent US20110009399A1, “ORGANIC COMPOUNDS” (priority 2007, published 2011).
pIC50: −log10 of the molar value.

Target: T1, renin (Homo sapiens, UniProt P00797)
T1 construct: This test measures the formation of angiotensin I in human plasma; from tissue; host or cells: human plasma
T1 sequence (P00797 67-406): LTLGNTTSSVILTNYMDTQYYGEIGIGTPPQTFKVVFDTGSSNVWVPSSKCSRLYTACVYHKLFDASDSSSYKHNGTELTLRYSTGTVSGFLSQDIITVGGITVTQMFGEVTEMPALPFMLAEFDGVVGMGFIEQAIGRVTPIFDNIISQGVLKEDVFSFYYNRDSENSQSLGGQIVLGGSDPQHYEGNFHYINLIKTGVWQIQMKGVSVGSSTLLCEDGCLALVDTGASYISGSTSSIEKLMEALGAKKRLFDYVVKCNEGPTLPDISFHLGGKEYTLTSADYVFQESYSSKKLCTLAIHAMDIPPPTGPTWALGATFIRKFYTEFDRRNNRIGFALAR
Assay: in vitro test of Nussberger et al.: formation of angiotensin I in human plasma, radioimmunoassay
Type: biochemical
Settings: values given as 'in the range of about', read-out: IC50, inhibition of the formation of angiotensin I
Experimental: The effect of renin inhibitors is detected inter alia experimentally by means of in vitro tests where the reduction in the formation of angiotensin I is measured in various systems (human plasma, purified human renin together with synthetic or natural renin substrate). The following in vitro test of Nussberger et al. (1987) J. Cardiovascular Pharmacol., Vol. 9, pp. 39-44, is used inter alia. This test measures the formation of angiotensin I in human plasma. The amount of angiotensin I formed is determined in a subsequent radioimmunoassay. The effect of inhibitors on the formation of angiotensin I is tested in this system by adding various concentrations of these substances. […] The compounds of the present invention show inhibitory effects in the in vitro systems at minimal concentrations of about 10^−6 to about 10^−10 mol/l.

Work on `CCO[C@H](C)COCc1ccc2c(c1)CCO[C@@]21CCNC[C@@H]1OCc1ccc2c(c1)N(CCCOC)CCO2` [Example 2, (1S,3′S)-6-({[(2R)-2-Ethoxypropyl]oxy}methyl)-3′-{[4-(3-methoxypropyl)-3,4-dihydro-2H-1,4-benzoxazin-6-yl]methoxy}-3,4-dihydrospiro[isochromene-1,4′-piperidine]] yielded a pIC50 of 7.70 to 9.00.

For `COCCCN1CCOc2ccc(CO[C@H]3CNCC[C@@]34OCc3cc(COC[C@@H](C)COC)ccc34)cc21` [Example 7, (1S,3′S)-5-({[(2S)-3-methoxy-2-methylpropyl]oxy}methyl)-3′-{[4-(3-methoxy-propyl)-3,4-dihydro-2H-1,4-benzoxazin-6-yl]methoxy}-3H-spiro[2-benzofuran-1,4′-piperidine]], the pIC50 was 7.70 to 9.00.

`CCOC(C)COCc1ccc2c(c1)OCCOC21CCNCC1OCc1ccc2c(c1)N(CCCOC)CCO2` [Example 14, (3′S,5S)-8-({[(2R)-2-Ethoxypropyl]oxy}methyl)-3′-{[4-(3-methoxypropyl)-3,4-dihydro-2H-1,4-benzoxazin-6-yl]methoxy}-2,3-dihydrospiro[1,4-benzo-dioxepine-5,4′-piperidine]] gave a pIC50 of 7.70 to 9.00.
